# Measurements taken from patent US6355799B1, “Substituted benzene compounds, process for their preparation, and herbicidal and defoliant compositions containing them” (ISK Americas Incorporated, priority 1997, dated 2002).
# Experiments:
# Format in all cases: in vivo
# [1] = system: redroot pigweed (Amaranthus retroflexus, AMARE); assay: Pre-emerge test, greenhouse herbicide activity screening; conditions: phytotoxicity rating 0-100, 14 days after application
# Summary of the method: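 Compounds in acetone were track-sprayed at 15-1000 g ai/ha (187 l/ha) on sandy loam pots: pre-emerge one day after seeding, post-emerge at 2-3 leaf stage with 0.25% v/v non-ionic surfactant. Phytotoxicity was rated 14 days later on a 0 (no damage) to 100 (complete death) scale.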
# [2] = system: barnyardgrass (Echinochloa crus-galli, ECHCG); assay: as above; conditions: phytotoxicity rating 0-100, 14 days after application
# Description: (§1) A standard greenhouse herbicide activity screening system was used to evaluate the herbicidal efficacy and crop safety of these test compounds. Seven broadleaf weed species including redroot pigweed (Amaranthus retroflexus, AMARE, velvetleaf (Abutilon theophrasti, ABUTH), sicklepod (Cassia obtusifolia, CASOB), ivyleaf morningglory (Ipomoea hederacea, IPOHE), lambsquarters (Chenopodium album, CHEAL), common ragweed (Ambrosia artemisizfolia L., AMBEL), and cocklebur (Xanthium strumarium, XANST) were used as test species. Four grass weed species including green foxtail (Setaria viridis, SETVI), barnyardgrass (Echinochloa crus-galli, ECHCG), johnsongrass (Sorghum halepense, SORHA), and large crabgrass (Digitaria sanguinalis, DIGSA) were also used. In addition, three crop species, field corn (Zea mays L., var. Dekalb 535, CORN), soybean (Glycine max L., var. Pella 86, SOY), and is upland rice (Oryza sp., var. Tebonnet, RICE) were included.
# (§2) All plants were grown in 10 cm square plastic pots which were filled with a sandy loam soil mix. For pre-emerge tests, seeds were planted one day prior to application of the test compounds. For post-emerge tests, seeds were planted 8-21 days prior to the test to allow emergence and good foliage development prior to application of the test substances. At the time of the post-emerge application, plants of all species were usually at the 2-3 leaf stage of development.
# (§3) All test compounds Were dissolved in acetone and applied to the test units in a volume of 187 l /ha. Test materials were applied at rates ranging from 15 g ai/ha to 1000 g ai/ha using a track sprayer equipped with a TJ8001E even flow flat fan spray nozzle. Plants were arranged on a shelf so that the top of the canopy (post-emerge) or top of the soil surface (pre-emerge) was 40-45 cm below the nozzle. Pressurized air was used to force the test solution through the nozzle as it was mechanically advanced (via electrically driven chain drive) over the top of all test plants/pots. This application simulates a typical commercial field herbicide application.
# (§4) In the post-emerge test, a commercial non-ionic surfactant was also included (0.25% v/v) to enhance wetting of the leaf surfaces of target plants. Immediately after application, test units of the pre-emerge applications were watered at the soil surface to incorporate the test materials. Subsequently, these test units were bottom-watered. Post-emerge test units were always bottom-watered.
# (§5) At 14 days after application of the test materials, phytotoxicity ratings were recorded. A rating scale of 0-100 was used as previously described in Research Methods in Weed Science, 2nd edition, B. Truelove, Ed., Southern Weed Science Society, Auburn University, Auburn, Ala. 1977. Briefly, “0” corresponds to no damage and “100” corresponds to complete death of all plants in the test unit. This scale was used both to determine efficacy against weed species and damage to crop species. Herbicide activity data for various compounds of this invention, which are shown by compound No. in Tables 1-8, are shown in Tables 11 and 12.
# [3] = system: green foxtail (Setaria viridis, SETVI); assay: as above; conditions: phytotoxicity rating 0-100, 14 days after application
# Description: as §1, §2, §3, §4, §5
# [4] = system: ivyleaf morningglory (Ipomoea hederacea, IPOHE); assay: as above; conditions: phytotoxicity rating 0-100, 14 days after application
# Description: as §1, §2, §3, §4, §5
# [5] = system: lambsquarters (Chenopodium album, CHEAL); assay: as above; conditions: phytotoxicity rating 0-100, 14 days after application
# Description: as §1, §2, §3, §4, §5
# [6] = system: large crabgrass (Digitaria sanguinalis, DIGSA); assay: as above; conditions: phytotoxicity rating 0-100, 14 days after application
# Description: as §1, §2, §3, §4, §5
# [7] = system: sicklepod (Cassia obtusifolia, CASOB); assay: as above; conditions: phytotoxicity rating 0-100, 14 days after application
# Description: as §1, §2, §3, §4, §5
# [8] = system: velvetleaf (Abutilon theophrasti, ABUTH); assay: as above; conditions: phytotoxicity rating 0-100, 14 days after application
# Description: as §1, §2, §3, §4, §5
# [9] = system: field corn (Zea mays L., var. Dekalb 535, CORN); assay: Pre-emerge test, crop safety; conditions: crop damage rating 0-100, 14 days after application
# Summary of the method: (§6)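 Herbicidal damage is scored 0 (none) to 100 (complete plant death) two weeks after a simulated field spray. Rates span 15–1000 g ai/ha, delivered in acetone at 187 l/ha. For post-emergence treatments, plants have 2–3 leaves and the spray carries 0.25% v/v non-ionic surfactant.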
# [10] = system: upland rice (Oryza sp., var. Tebonnet, RICE); assay: Pre-emerge test, crop safety; conditions: crop damage rating 0-100, 14 days after application
# Summary of the method: as §6
# [11] = system: barnyardgrass (Echinochloa crus-galli, ECHCG); assay: Post-emerge test, greenhouse herbicide activity screening; conditions: post-emerge, 14 days after application, rating scale 0-100
# Description: as §1, §2, §3, §4, §5
# [12] = system: green foxtail (Setaria viridis, SETVI); assay: as above; conditions: post-emerge, 14 days after application, rating scale 0-100
# Description: as §1, §2, §3, §4, §5
# [13] = system: ivyleaf morningglory (Ipomoea hederacea, IPOHE); assay: as above; conditions: post-emerge, 14 days after application, rating scale 0-100
# Description: as §1, §2, §3, §4, §5
# [14] = system: lambsquarters (Chenopodium album, CHEAL); assay: as above; conditions: post-emerge, 14 days after application, rating scale 0-100
# Description: as §1, §2, §3, §4, §5
# [15] = system: large crabgrass (Digitaria sanguinalis, DIGSA); assay: as above; conditions: post-emerge, 14 days after application, rating scale 0-100
# Description: as §1, §2, §3, §4, §5
# [16] = system: redroot pigweed (Amaranthus retroflexus, AMARE); assay: as above; conditions: post-emerge, 14 days after application
# Description: as §1, §2, §3, §4, §5
# [17] = system: sicklepod (Cassia obtusifolia, CASOB); assay: as above; conditions: post-emerge, 14 days after application, rating scale 0-100
# Description: as §1, §2, §3, §4, §5
# [18] = system: velvetleaf (Abutilon theophrasti, ABUTH); assay: as above; conditions: post-emerge, 14 days after application, rating scale 0-100
# Description: as §1, §2, §3, §4, §5
# [19] = system: field corn (Zea mays L., var. Dekalb 535, CORN); assay: Post-emerge test, crop safety; conditions: post-emerge, 14 days after application, rating scale 0-100
# Summary of the method: (§7)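 Fourteen days after spraying, crop and weed injury was graded visually from 0, no effect, to 100, every plant dead. Test substances were dissolved in acetone and applied at 15–1000 g ai/ha with a flat-fan nozzle. Application was either pre-emergence, one day after sowing, or post-emergence at the 2–3 leaf stage.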
# [20] = system: upland rice (Oryza sp., var. Tebonnet, RICE); assay: Post-emerge test, crop safety; conditions: post-emerge, 14 days after application, rating scale 0-100
# Summary of the method: as §7
compound,measurement,setting,value
COc1c(Cl)ccc(-n2c(=O)cc(C(F)(F)F)n(C)c2=O)c1NC(=O)c1ccc2ccccc2c1 [2-202],Pre-emerge Herbicidal Activity AMARE,[1]; 63 g ai/ha,100
same,Pre-emerge Herbicidal Activity AMARE,[1]; 250 g ai/ha,100
same,Pre-emerge Herbicidal Activity ECHCG,[2]; 63 g ai/ha,90
same,Pre-emerge Herbicidal Activity ECHCG,[2]; 250 g ai/ha,100
same,Pre-emerge Herbicidal Activity SETVI,[3]; 63 g ai/ha,40
same,Pre-emerge Herbicidal Activity SETVI,[3]; 250 g ai/ha,100
same,Pre-emerge Herbicidal Activity IPOHE,[4]; 63 g ai/ha,100
same,Pre-emerge Herbicidal Activity IPOHE,[4]; 250 g ai/ha,100
same,Pre-emerge Herbicidal Activity CHEAL,[5]; 63 g ai/ha,100
same,Pre-emerge Herbicidal Activity CHEAL,[5]; 250 g ai/ha,100
same,Pre-emerge Herbicidal Activity DIGSA,[6]; 63 g ai/ha,30
same,Pre-emerge Herbicidal Activity DIGSA,[6]; 250 g ai/ha,100
same,Pre-emerge Herbicidal Activity CASOB,[7]; 63 g ai/ha,30
same,Pre-emerge Herbicidal Activity CASOB,[7]; 250 g ai/ha,80
same,Pre-emerge Herbicidal Activity ABUTH,[8]; 63 g ai/ha,100
same,Pre-emerge Herbicidal Activity ABUTH,[8]; 250 g ai/ha,100
same,Pre-emerge Herbicidal Activity CORN,[9]; 63 g ai/ha,0
same,Pre-emerge Herbicidal Activity CORN,[9]; 250 g ai/ha,50
same,Pre-emerge Herbicidal Activity RICE,[10]; 63 g ai/ha,40
same,Pre-emerge Herbicidal Activity RICE,[10]; 250 g ai/ha,90
same,phytotoxicity rating ECHCG,[11]; 63 g ai/ha,10
same,phytotoxicity rating ECHCG,[11]; 250 g ai/ha,40
same,phytotoxicity rating SETVI,[12]; 63 g ai/ha,30
same,phytotoxicity rating SETVI,[12]; 250 g ai/ha,40
same,phytotoxicity rating IPOHE,[13]; 63 g ai/ha,100
same,phytotoxicity rating IPOHE,[13]; 250 g ai/ha,100
same,phytotoxicity rating CHEAL,[14]; 63 g ai/ha,100
same,phytotoxicity rating CHEAL,[14]; 250 g ai/ha,100
same,phytotoxicity rating DIGSA,[15]; 63 g ai/ha,0
same,phytotoxicity rating DIGSA,[15]; 250 g ai/ha,30
same,phytotoxicity rating AMARE,"[16]; 63 g ai/ha, rating scale 0-100 (0 no damage, 100 complete death)",100
same,phytotoxicity rating AMARE,"[16]; 250 g ai/ha, rating scale 0-100",100
same,phytotoxicity rating CASOB,[17]; 63 g ai/ha,100
same,phytotoxicity rating CASOB,[17]; 250 g ai/ha,100
same,phytotoxicity rating ABUTH,[18]; 63 g ai/ha,100
same,phytotoxicity rating ABUTH,[18]; 250 g ai/ha,100
same,phytotoxicity rating CORN (crop damage),[19]; 63 g ai/ha,15
same,phytotoxicity rating CORN (crop damage),[19]; 250 g ai/ha,30
same,phytotoxicity rating RICE (crop damage),[20]; 63 g ai/ha,20
same,phytotoxicity rating RICE (crop damage),[20]; 250 g ai/ha,60
